For 38 compounds, outcome, GI50 and TGI results are on record in PubChem BioAssay (NCI).

The assay relates to MDA-MB-468 breast. Description: growth of human tumour cells (NCI), 48 h.

Where “and” joins values, the source holds several entries; their conditions need not be identical. Identical values can stand only once.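 Five compound concentrations were applied to cells in 96-well plates for 48 hours; endpoints were derived by simple linear interpolation of the resulting dose-response curve. Abbreviation: GI50, concentration required for 50% inhibition of growth. TGI denotes the concentration required for complete inhibition of growth.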 Calls of active or inactive are those of the source. No stated cut-off is given here; in the data, active means GI50 below about 0.43 µM; inactive means the rest.

On to `CO[C@H](C(=O)[C@@H](O)[C@@H](C)O)[C@@H]1Cc2cc3cc(OC4CC(OC5CC(O)C(O)C(C)O5)C(O)C(C)O4)c(C)c(O)c3c(O)c2C(=O)[C@H]1OC1CC(OC2CC(OC3CC(C)(O)C(O)C(C)O3)C(O)C(C)O2)C(O)C(C)O1` (stereo not given in full), for which the outcome was inactive.

As to `OCC(O)c1nc2ccc3[nH]ncc3c2c2c1CCCC2` (stereo not given), the GI50 is 1.04 µM and the TGI was determined as 2.11 µM.

On to `COc1ccc(/C=N\Nc2ccc([N+](=O)[O-])cn2)cc1OC`, for which the GI50 is greater than 100 µM and the TGI is greater than 100 µM.

`COc1ccccc1CNCCCN1C(=O)c2ccc3c4c(ccc(c24)C1=O)C(=O)N(CCCCNCCCN)C3=O`: the GI50 was 0.267 µM and the TGI came to 0.835 µM.

For the compound `CNC(=O)Cc1nc(-c2cccc(NS(=O)(=O)c3c(F)cccc3F)c2F)c(-c2ccnc(Nc3ccccc3)n2)s1`, the GI50 was greater than 23.4 µM and the TGI is greater than 50 µM.

In the case of `Cc1sc2c(c1C)C(c1ccc(Cl)cc1)=N[C@@H](CC(=O)OC(C)(C)C)c1nnc(C)n1-2`, the GI50 was 0.0708 µM and 0.112 µM; the TGI is 1.52 µM and 10.8 µM.

With `COc1ccc(C(=O)c2cc3c(N)c(C(=O)Nc4ccc(C)cc4)sc3nc2C)cc1`, the GI50 was 1.87 µM and the TGI was 7.08 µM.

Consider `CCOC(=O)CC1C(COC(=O)NC)OC(n2cnc3c(NC(=O)Nc4ccccc4)ncnc32)C1O[Si](C)(C)C(C)(C)C` (stereo not given), for which the GI50 was 19.7 µM and the TGI amounted to 94.1 µM.

For `COC(=O)c1cc(O)c2c(c1C(=O)OC)C[C@H]1[C@@H]3CC=C4C[C@@H](O)CC[C@]4(C)[C@H]3CC[C@]21C`, the GI50 was 2.87 µM and the TGI is 18.1 µM.

Turning to `Nc1nc(N)c2cc(NCc3ccc(Cl)c(Cl)c3)ccc2n1`, the GI50 was 1.06 µM and the TGI came to 2.23 µM.

For `Cn1c2ccc(Br)cc2c2c3c(c4c5ccccc5[nH]c4c21)C(=O)N(O)C3=O`, the GI50 is 0.214 µM and the TGI came to 0.638 µM.

With `COc1ccc2[nH]cc(-c3nc(N)nnc3-c3cn(C)c4ccc(Br)cc34)c2c1`, the GI50 is 0.698 µM and the TGI came out at 16 µM.

As to `COc1ccc2c(c1)CC[C@H](O)/C2=C/c1cc(OC)c(OC)c(OC)c1`, the GI50 was 0.2 µM and the TGI came to 15.8 µM.

As for `Cc1ccc(N(CC(=O)Nc2ccc(S(=O)(=O)N3CCC(N4CCCC4)CC3)cc2)S(=O)(=O)c2ccc(Cl)cc2)cc1`, the GI50 is 1.65 µM and the TGI was determined as 3.48 µM.

Take `O=C(OCc1ncc(-c2ccc(C(F)(F)F)cc2)c(NC2CCCCCC2)n1)c1c(F)c(F)c(F)c(F)c1F`: the GI50 is 2 µM and the TGI was 5.01 µM.

Take `COc1cc(Nc2nc3ccccc3cc2C(=O)Nc2ccc(F)c(F)c2)cc(OC)c1OC`: the GI50 is 2.01 µM and the TGI was found to be 6.58 µM.

For `CCN(CC)CCCC(C)N=C(C1=C(C(=NC(C)CCCN(CC)CC)c2cccc(OC)c2)C(=O)NC1=O)c1cccc(OC)c1` (stereo not given), the GI50 was 0.869 µM and the TGI turned out to be 2.07 µM.

Take `NC(=O)c1cccc(Nc2nccc(Nc3cccc4[nH]ncc34)n2)c1`: the GI50 is 2.12 µM and the TGI came out at 9.35 µM.

As to `Cc1cc(N2CCSCC2)nc(NC2CCCC(Nc3ccnc4cc(Cl)ccc34)C2)n1` (stereo not given), the GI50 was 1.58 µM and the TGI worked out at 3.35 µM.

For `COc1cc(-c2nc(-c3nc4ccccc4[nH]3)cc3c2[nH]c2ccccc23)cc(OC)c1OC`, the GI50 is 3.32 µM and the TGI was greater than 100 µM.

With `O=C(N/N=C/c1ccc([N+](=O)[O-])s1)c1[nH]c2ccc(Br)cc2c1-c1ccccc1`, the GI50 is 0.731 µM and the TGI worked out at 22.2 µM.

As for `COc1cc(CNc2ccccc2C(=O)N2CCN(C(=O)c3cc(-c4cc(OC)c(OC)c(OC)c4)n4nc(-c5ccccc5)cc4n3)CC2)cc(OC)c1OC`, the GI50 was 2.1 µM and the TGI is 8.45 µM.

In the case of `CCCC(CCC)C(=O)OCC1(CO)C/C(=C\c2ccc(F)cc2)C(=O)O1` (stereo not given), the GI50 was 11.3 µM and the TGI was 24.2 µM.

On to `CC(C)(C)CC(C)(C)NCc1cc(C(C)(C)C)cc(CNC(C)(C)CC(C)(C)C)c1O`, for which the GI50 was 1.26 µM and the TGI is 2.85 µM.

As to `O=C1/C(=C\c2ccccn2)c2ccccc2N1c1c(Cl)cccc1Cl`, the GI50 is 1.26 µM and the TGI was determined as 3.1 µM.

As to `C=C1CCC2C(C)(COC(=O)CC)C(OC(=O)CC)CCC2(C)C1C/C=C1/C(=O)OCC1OC(=O)CC` (stereo not given), the GI50 is 1.74 µM and the TGI amounted to 3.4 µM.

In the case of `N#Cc1c(NC(=O)c2ccccc2C(F)(F)F)sc2c1CCC(=O)C2`, the GI50 is 1.69 µM and the TGI worked out at 4.68 µM.

Consider `Cc1cc(CC(C)CC(C)(C)C)n(O)c(=O)c1` (stereo not given) (tested in a mixture with another compound), for which the GI50 is 0.273 µM and the TGI came out at 1.06 µM.

In the case of `O=C(Nc1ccc(-n2ccc3c(NC(=O)c4ccccc4)ncnc32)cc1)Nc1cccc(Cl)c1Cl`, the GI50 is 1.18 µM and the TGI turned out to be 3.42 µM.

Regarding `COc1cccc(C2c3cc4c(cc3OC(N3CCCC3)C2C)OCO4)c1O` (stereo not given), the GI50 was 3.33 µM and the TGI stood at 15.8 µM.

`CN1C(=O)N[C@H]2[C@@H]3NC(=O)c4ccc(Br)n4[C@@H]3C[C@]21O`: the GI50 is 0.0253 µM and the TGI was found to be 0.173 µM.

In the case of `CCN(CC)CCCNC(=O)c1c2c(n3ccccc13)C(=O)c1ncccc1C2=O`, the GI50 was 0.283 µM and the TGI was 1.08 µM.

Regarding `Cc1ccc(C)c(C2NC(=O)c3ccccc3N2)c1` (stereo not given), the GI50 is 4.38 µM and the TGI was greater than 100 µM.

As for `COc1cccc(NC(=O)c2sc3nc4c(cc3c2N)C(=O)CCC4)c1`, the GI50 is 0.0467 µM and the TGI is greater than 100 µM.

For the compound `CCC(CNc1cc(OC)cc2cccnc12)NC1CCCCC1` (stereo not given), the GI50 is 7.66 µM and the TGI came out at 35.5 µM.

As for `Cc1nc(N2CCC3(CC2)CO[C@@H](C)[C@H]3N)c(CO)nc1Sc1ccnc(N)c1Cl`, the GI50 was 0.228 µM and the TGI was 4.86 µM.

In the case of `O=C(/C=C/c1ccccc1)n1c(-c2ccc(Cl)cc2)nc2ccccc21`, the GI50 was 1.52 µM and the TGI turned out to be 4.32 µM.

As to `CC(C)(C)[Si](C)(C)OC1[C@@H](O[Si](C)(C)C(C)(C)C)[C@@H](CNC(=O)NC(=O)CCl)O[C@H]1n1cnc2c(NC(=O)Nc3ccccc3)ncnc21` (stereo not given in full), the GI50 was 0.839 µM and the TGI was found to be 1.91 µM.
